Measured values from patent publication US7488568B2, “Resist composition, method of forming resist pattern, compound and acid generator” (Tokyo Ohka Kogyo Co., Ltd., priority 2008, dated 2009).

Assay: Evaluation of solubility of acid generators in resist solvents (concentration at which completely dissolved)
Type: physicochemical
Conditions: for Solubility in EL (% by weight): ethyl lactate; for Solubility in PGME (% by weight): propylene glycol monomethyl ether; for Solubility in PGMEA (% by weight): propylene glycol monomethyl ether acetate
Protocol: With respect to each of the compounds, propylene glycol monomethyl ether acetate (PGMEA) solutions, propylene glycol monomethyl ether (PGME) solutions and ethyl lactate (EL) solutions of various concentrations were prepared. The prepared solutions were stirred to evaluate the concentration at which the acid generator was completely dissolved.

[1] = Table 1, concentration at which completely dissolved

Row | Solubility in EL (% by weight) (Table 8) | Solubility in PGME (% by weight) (Table 8) | Solubility in PGMEA (% by weight) (Table 8) | Solubility in EL (% by weight) (Table 1) | Solubility in PGMEA (% by weight) (Table 1) | Solubility in PGME (% by weight) [1] | Structure (SMILES)
1 | 5.0 | 5.0 % by weight | <2.0 % by weight |  |  |  | c1ccc([S+](c2cccc3ccccc23)c2cccc3ccccc23)cc1 [(1)]
2 | 20.0 | 20.0 % by weight | 10~15 % by weight |  |  |  | c1ccc(-[s+]2c3ccccc3c3ccccc32)cc1 [(2)]
3 |  |  |  | 20 % by weight | 20 % by weight | 10-15 % by weight | c1ccc(-[s+]2c3ccccc3c3ccccc32)cc1 [(b1-01), phenyldibenzothiophenium nonafluorobutane sulfonate]
4 |  |  |  | 5 % by weight | 5 % by weight | <2 % by weight | c1ccc([S+](c2cccc3ccccc23)c2cccc3ccccc23)cc1 [(b′-01), di(1-naphthyl)phenylsulfonium nonafluorobutane sulfonate]
5 |  | 10~15 % by weight |  | 10-15 % by weight | 10-15 % by weight | <2 % by weight | Cc1cc(-[s+]2c3ccccc3c3ccccc32)cc(C)c1O [Compound (b1-51)]
6 |  |  |  | 20 % by weight | 20 % by weight | 10 % by weight | Cc1cc(-[s+]2c3ccccc3c3ccccc32)cc(C)c1OC(=O)OC(C)(C)C [Compound (b1-81)]
7 | >30 | >30 % by weight | >30 % by weight |  |  |  | Cc1cc(-[s+]2c3ccccc3c3ccccc32)cc(C)c1OCOC1CCCCC1 [b1-100]
